Test system: SYO-1 complex spheroid growth, percent test/control
Assay: Anticancer human tumor SYO-1 cell line growth inhibition [Asc];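 also: compound exposure lasted 7 days after spheroids grew 3 days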;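 as to viability, T/C: 100% = DMSO vehicle control viability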
Conditions: for IC50: curve of first compound; for viability, T/C: stronger effect = lower value
In short: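 Tumor cells were grown as multicellular spheroids with stromal HUVEC and mesenchymal stem cells and treated singly or in combination. Concentrations fell in half-log steps from the clinical Cmax, or from 10 microM where none was known.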

[1] = second compound 0.0316 µM, first compound 0.0316 µM
[2] = second compound 0.0316 µM, first compound 0.1 µM
[3] = second compound 0.0316 µM, first compound 0.316 µM
[4] = second compound 0.0316 µM, first compound 1 µM
[5] = second compound 0.0316 µM, first compound 3.16 µM
[6] = second compound 0.0316 µM, first compound 10 µM
[7] = second compound 0.1 µM, first compound 0.0316 µM
[8] = second compound 0.1 µM, first compound 0.1 µM
[9] = second compound 0.1 µM, first compound 0.316 µM
[10] = second compound 0.1 µM, first compound 1 µM
[11] = second compound 0.1 µM, first compound 3.16 µM
[12] = second compound 0.1 µM, first compound 10 µM
[13] = second compound 0.316 µM, first compound 0.0316 µM
[14] = second compound 0.316 µM, first compound 0.1 µM
[15] = second compound 0.316 µM, first compound 0.316 µM
[16] = second compound 0.316 µM, first compound 1 µM
[17] = second compound 0.316 µM, first compound 3.16 µM
[18] = second compound 0.316 µM, first compound 10 µM
[19] = second compound 1 µM, first compound 0.0316 µM
[20] = second compound 1 µM, first compound 0.1 µM
[21] = second compound 1 µM, first compound 0.316 µM
[22] = second compound 1 µM, first compound 1 µM
[23] = second compound 1 µM, first compound 3.16 µM
[24] = second compound 1 µM, first compound 10 µM

## C=C(F)C(=O)N1CCN(c2nc(OCC3CCCN3C)nc3c2CCN(c2cccc4cccc(Cl)c24)C3)CC1CC#N (configuration not stated) + CNC(C)C(=O)NC1CN(S(=O)(=O)c2cccc(S(=O)(=O)N3CCC4CCC(C(=O)NC(c5ccccc5)c5ccccc5)N4C(=O)C(NC(=O)C(C)NC)C3)c2)CCC2CCC(C(=O)NC(c3ccccc3)c3ccccc3)N2C1=O
Second compound 0.01 µM
  IC50: 5650 nM
Second compound 0.0316 µM
  IC50: 5600 nM
Second compound 0.1 µM
  IC50: 5580 nM
Second compound 0.316 µM
  IC50: 5460 nM
Second compound 1 µM
  IC50: 5360 nM
Second compound 0.01 µM, first compound 0.0316 µM
  viability, T/C: 99.1%
Second compound 0.01 µM, first compound 0.1 µM
  viability, T/C: 113%
Second compound 0.01 µM, first compound 0.316 µM
  viability, T/C: 104%
Second compound 0.01 µM, first compound 1 µM
  viability, T/C: 99.7%
Second compound 0.01 µM, first compound 3.16 µM
  viability, T/C: 101%
Second compound 0.01 µM, first compound 10 µM
  viability, T/C: 0.23%
[1]
  viability, T/C: 96.7%
[2]
  viability, T/C: 103%
[3]
  viability, T/C: 101%
[4]
  viability, T/C: 98.3%
[5]
  viability, T/C: 99%
[6]
  viability, T/C: 0.22%
[7]
  viability, T/C: 100%
[8]
  viability, T/C: 105%
[9]
  viability, T/C: 95%
[10]
  viability, T/C: 97.2%
[11]
  viability, T/C: 98.6%
[12]
  viability, T/C: 0.21%
[13]
  viability, T/C: 98.5%
[14]
  viability, T/C: 103%
[15]
  viability, T/C: 103%
[16]
  viability, T/C: 88.7%
[17]
  viability, T/C: 95%
[18]
  viability, T/C: 0.23%
[19]
  viability, T/C: 104%
[20]
  viability, T/C: 104%
[21]
  viability, T/C: 101%
[22]
  viability, T/C: 94.2%
[23]
  viability, T/C: 92.3%
[24]
  viability, T/C: 0.26%

## CCN1C(C(=O)NC23CCC(C(=O)O)(CC2)CC3)C(c2cccc(Cl)c2F)C2(C(=O)Nc3cc(Cl)ccc32)C12CCCCC2 (configuration not stated) + CNC(C)C(=O)NC1CN(S(=O)(=O)c2cccc(S(=O)(=O)N3CCC4CCC(C(=O)NC(c5ccccc5)c5ccccc5)N4C(=O)C(NC(=O)C(C)NC)C3)c2)CCC2CCC(C(=O)NC(c3ccccc3)c3ccccc3)N2C1=O
Second compound 0.01 µM
  IC50: 146 nM
Second compound 0.0316 µM
  IC50: 120 nM
Second compound 0.1 µM
  IC50: 110 nM
Second compound 0.316 µM
  IC50: 115 nM
Second compound 1 µM
  IC50: 94.9 nM
Second compound 0.01 µM, first compound 0.00949 µM
  viability, T/C: 104%
Second compound 0.01 µM, first compound 0.03 µM
  viability, T/C: 95%
Second compound 0.01 µM, first compound 0.0949 µM
  viability, T/C: 71.8%
Second compound 0.01 µM, first compound 0.3 µM
  viability, T/C: 13.8%
Second compound 0.01 µM, first compound 0.949 µM
  viability, T/C: 1.75%
Second compound 0.01 µM, first compound 3 µM
  viability, T/C: 0.88%
Second compound 0.0316 µM, first compound 0.00949 µM
  viability, T/C: 98.9%
Second compound 0.0316 µM, first compound 0.03 µM
  viability, T/C: 96.6%
Second compound 0.0316 µM, first compound 0.0949 µM
  viability, T/C: 60.3%
Second compound 0.0316 µM, first compound 0.3 µM
  viability, T/C: 9.46%
Second compound 0.0316 µM, first compound 0.949 µM
  viability, T/C: 1.09%
Second compound 0.0316 µM, first compound 3 µM
  viability, T/C: 0.76%
Second compound 0.1 µM, first compound 0.00949 µM
  viability, T/C: 99.2%
Second compound 0.1 µM, first compound 0.03 µM
  viability, T/C: 90.2%
Second compound 0.1 µM, first compound 0.0949 µM
  viability, T/C: 56.5%
Second compound 0.1 µM, first compound 0.3 µM
  viability, T/C: 10.5%
Second compound 0.1 µM, first compound 0.949 µM
  viability, T/C: 0.93%
Second compound 0.1 µM, first compound 3 µM
  viability, T/C: 0.63%
Second compound 0.316 µM, first compound 0.00949 µM
  viability, T/C: 102%
Second compound 0.316 µM, first compound 0.03 µM
  viability, T/C: 89.8%
Second compound 0.316 µM, first compound 0.0949 µM
  viability, T/C: 59.6%
Second compound 0.316 µM, first compound 0.3 µM
  viability, T/C: 8.45%
Second compound 0.316 µM, first compound 0.949 µM
  viability, T/C: 0.85%
Second compound 0.316 µM, first compound 3 µM
  viability, T/C: 0.95%
Second compound 1 µM, first compound 0.00949 µM
  viability, T/C: 112%
Second compound 1 µM, first compound 0.03 µM
  viability, T/C: 88.9%
Second compound 1 µM, first compound 0.0949 µM
  viability, T/C: 54.7%
Second compound 1 µM, first compound 0.3 µM
  viability, T/C: 5.93%
Second compound 1 µM, first compound 0.949 µM
  viability, T/C: 0.81%
Second compound 1 µM, first compound 3 µM
  viability, T/C: 0.72%

## O=C(c1cc(Cc2n[nH]c(=O)c3ccccc23)ccc1F)N1CCN(C(=O)C2CC2)CC1 + Cc1c(S(C)(=O)=O)c(-c2cc(F)cc(N3CCN(c4ccc(NS(=O)(=O)c5ccc(NC(CCN6CCC(C(=O)OCCCP(=O)(O)O)CC6)CSc6ccccc6)c(S(=O)(=O)C(F)(F)F)c5)cc4)CC3)c2)c(-c2ccc(Cl)cc2)n1C(C)C
Second compound 0.0316 µM
  IC50: 1840 nM
Second compound 0.1 µM
  IC50: 1850 nM
Second compound 0.316 µM
  IC50: 1630 nM
Second compound 1 µM
  IC50: 1640 nM
Second compound 3.16 µM
  IC50: 1170 nM
Second compound 10 µM
  IC50: 613 nM
[1]
  viability, T/C: 106%
[2]
  viability, T/C: 90.1%
[3]
  viability, T/C: 96.5%
[4]
  viability, T/C: 85.1%
[5]
  viability, T/C: 18.6%
[6]
  viability, T/C: 4.21%
[7]
  viability, T/C: 105%
[8]
  viability, T/C: 93.3%
[9]
  viability, T/C: 89.7%
[10]
  viability, T/C: 92.5%
[11]
  viability, T/C: 13.1%
[12]
  viability, T/C: 3.38%
[13]
  viability, T/C: 95.6%
[14]
  viability, T/C: 92%
[15]
  viability, T/C: 95.7%
[16]
  viability, T/C: 82.2%
[17]
  viability, T/C: 6.13%
[18]
  viability, T/C: 2.3%
[19]
  viability, T/C: 89.7%
[20]
  viability, T/C: 108%
[21]
  viability, T/C: 87.2%
[22]
  viability, T/C: 84.9%
[23]
  viability, T/C: 4.13%
[24]
  viability, T/C: 1.66%
Second compound 3.16 µM, first compound 0.0316 µM
  viability, T/C: 93.4%
Second compound 3.16 µM, first compound 0.1 µM
  viability, T/C: 88.7%
Second compound 3.16 µM, first compound 0.316 µM
  viability, T/C: 83.9%
Second compound 3.16 µM, first compound 1 µM
  viability, T/C: 57.7%
Second compound 3.16 µM, first compound 3.16 µM
  viability, T/C: 2.51%
Second compound 3.16 µM, first compound 10 µM
  viability, T/C: 1.72%
Second compound 10 µM, first compound 0.0316 µM
  viability, T/C: 83.7%
Second compound 10 µM, first compound 0.1 µM
  viability, T/C: 81.1%
Second compound 10 µM, first compound 0.316 µM
  viability, T/C: 69.8%
Second compound 10 µM, first compound 1 µM
  viability, T/C: 35.9%
Second compound 10 µM, first compound 3.16 µM
  viability, T/C: 2.29%
Second compound 10 µM, first compound 10 µM
  viability, T/C: 2.09%
